Values quoted from earlier work as cited in patent US20210268271A1, “SYSTEMS AND METHODS FOR VISCERAL NEUROMODULATION” (priority 2018, published 2021).

Assays:
[1] = tested on: TRPV1 expressing cardiac nerve endings; conditions: in vivo

Row | Compound | duration of block (deep cardiac plexus) | also measured
1 | C[C@H](CCCC(C)(C)O)[C@H]1CC[C@H]2[C@@H]3CC=C4C[C@@H](O)CC[C@]4(C)[C@H]3CC[C@]12C [25-OH-cholesterol] |  | relative potency among cholesterol oxides (sympathetic ganglia): most potent
2 | C=C(C)[C@]12C[C@@H](C)[C@@]34O[C@](Cc5ccccc5)(O[C@@H]1[C@@H]3C=C(COC(=O)Cc1ccc(O)c(OC)c1)C[C@]1(O)C(=O)C(C)=C[C@@H]41)O2 [RTX, resiniferatoxin] |  | duration of complete ablation of TRPV1 expressing cardiac nerve endings [1]: over 10 weeks
3 | CCCCN1CCCCC1C(=O)Nc1c(C)cccc1C (stereo not shown) [bupivacaine] | approximately 2 hours | 
4 | CCN(CC)CC(=O)Nc1c(C)cccc1C [lidocaine] | approximately 2 hours | 
